Source: ChEMBL document CHEMBL2375281, “Exploring the UDP pocket of LpxC through amino acid analogs” (Bioorg Med Chem Lett, 2013)

assay: Lipophilicity, log D of the compound; format: physicochemical; conditions: octanol/water

logD	SMILES
3	O=C(NC1(C(=O)NO)CCNCC1)c1ccc(C#Cc2ccccc2)cc1
2	O=C(N[C@@H](CO)C(=O)NO)c1ccc(C#Cc2ccccc2)cc1
> 3	O=C(NC1(C(=O)NO)CCN(Cc2ccccc2)CC1)c1ccc(C#Cc2ccccc2)cc1
2	O=C(C[C@H](NC(=O)c1ccc(C#Cc2ccccc2)cc1)C(=O)NO)NCCCO
3	CSC[C@H](NC(=O)c1ccc(C#Cc2ccccc2)cc1)C(=O)NO
> 4	O=C(NC1(C(=O)NO)CCOCC1)c1ccc(C#Cc2ccccc2)cc1
> 3	O=C(N[C@@H](C(=O)NO)c1ccccc1)c1ccc(C#Cc2ccccc2)cc1
3	O=C(CNC(=O)c1ccc(C#Cc2ccccc2)cc1)NO
> 3	CC(C)C(NC(=O)c1ccc(C#Cc2ccccc2)cc1)C(=O)NO (racemic)
> 3	O=C(NC1(C(=O)NO)CCSCC1)c1ccc(C#Cc2ccccc2)cc1
1	NC(=O)C[C@H](NC(=O)c1ccc(C#Cc2ccccc2)cc1)C(=O)NO
3	C#CCNC(=O)C[C@H](NC(=O)c1ccc(C#Cc2ccccc2)cc1)C(=O)NO

More lines, now with the values behind:

SMILES	logD
C[C@H](O)[C@H](NC(=O)c1ccc(C#Cc2ccccc2)cc1)C(=O)NO	2
COCCNC(=O)C[C@H](NC(=O)c1ccc(C#Cc2ccccc2)cc1)C(=O)NO	2
CS(=O)(=O)C[C@H](NC(=O)c1ccc(C#Cc2ccccc2)cc1)C(=O)NO	2
O=C(NC1(C(=O)NO)CCC1)c1ccc(C#Cc2ccccc2)cc1	> 3
CC(C)(NC(=O)c1ccc(C#Cc2ccccc2)cc1)C(=O)NO	3
O=C(NC1(C(=O)NO)CCCCC1)c1ccc(C#Cc2ccccc2)cc1	> 3
O=C(N[C@H](CO)C(=O)NO)c1ccc(C#Cc2ccccc2)cc1	2
NC[C@H](NC(=O)c1ccc(C#Cc2ccccc2)cc1)C(=O)NO	2
O=C(NC1(C(=O)NO)CCS(=O)(=O)CC1)c1ccc(C#Cc2ccccc2)cc1	3
CC(NC(=O)c1ccc(C#Cc2ccccc2)cc1)C(=O)NO (racemic)	> 3
O=C(N[C@H](C(=O)NO)c1ccccc1)c1ccc(C#Cc2ccccc2)cc1	3
